Here are results for 6 compounds from patent US6878736B1, “Histamine H3 receptor ligands” (James Black Foundation Limited, priority 1998, dated 2005).

Where a name gives a salt, the structure may show the parent alone.

For test [1], the target named is T1, Histamine H3 receptor (Cavia porcellus, UniProt Q9JI35). The test can be described thus: Histamine H3 radioligand binding assay, guinea pig cortex ([3H]-R-α-methylhistamine). The following applies: guinea pig cortex membranes, competition with 1 nM [3H]-R-α-methylhistamine; for Ki: read-out: pKi (Guinea pig cortex) (converted). The essentials:
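Male Dunkin Hartley guinea pig cortical membranes incubated 165 min at 21±3 °C in 20 mM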

Test [2] concerns the target T1, Histamine H3 receptor. The test can be described thus: Histamine H3 functional assay, guinea pig ileum (ileal longitudinal muscle, myenteric plexus). Further details: species or system tissue. The following applies: antagonist affinity from rightward shift of R-(α)-methylhistamine E/[A] curves (Schild), typical variance ±0.15 log units; for Kb: read-out: pKb (Guinea pig ileum) (converted). The essentials:
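Longitudinal muscle–myenteric plexus strips from male Dunkin-Hartley guinea pigs (250-300 g), Krebs-Henseleit buffer at 37±1° C, field-stimulated at 0.1 Hz, 0.5 msec, supramaximal voltage; isometric recording. Cumulative R-(α)-methylhistamine E/[A] curves as % inhibition of twitch height; antagonist affinity by Schild analysis of rightward shift.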

T1 sequence (Q9JI35 whole entry): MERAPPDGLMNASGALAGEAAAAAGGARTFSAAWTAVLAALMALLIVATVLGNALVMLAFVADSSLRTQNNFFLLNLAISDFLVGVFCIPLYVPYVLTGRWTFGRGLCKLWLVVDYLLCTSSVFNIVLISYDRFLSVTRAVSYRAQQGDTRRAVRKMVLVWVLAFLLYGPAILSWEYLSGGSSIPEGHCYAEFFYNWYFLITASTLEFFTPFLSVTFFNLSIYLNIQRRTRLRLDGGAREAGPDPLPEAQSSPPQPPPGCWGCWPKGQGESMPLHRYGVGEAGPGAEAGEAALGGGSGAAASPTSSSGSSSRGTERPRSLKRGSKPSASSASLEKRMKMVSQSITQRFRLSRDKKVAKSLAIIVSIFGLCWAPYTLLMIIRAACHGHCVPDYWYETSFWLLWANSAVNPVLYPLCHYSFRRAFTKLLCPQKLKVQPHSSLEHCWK

As to `CCC(C)CNC(=N)NCCCCCN1CCCC1` (stereo not drawn) [Example 67, N-(2-Methyl-butyl)-N′-(5-pyrrolidin-1-yl-pentyl)-guanidine bis-hydrochloride], in test [1], the Ki was 2.51 nM. Also, the Kb in test [2] was 50.1 nM.

On to `Cl.Cl.N=C(NCCCCCN1CCCC1)NCC12CC3CC(CC(C3)C1)C2` [Example 30, N-Adamantan-1-yl-methyl-N′-(5-pyrrolidin-1-yl-pentyl)-guanidine bis-hydrochloride], for which, in test [1], the “pKi (Guinea pig cortex)” value was determined as 8.5. For the same compound, the “pKb (Guinea pig ileum)” value in test [2] is 7.9.

“N-Biphenyl-4-yl-methyl-N′-(5-pyrrolidin-1-yl-pentyl)-guanidine bis-hydrochloride [Example 55]”: the “pKi (Guinea pig cortex)” value in test [1] stood at 7.5. In addition, the “pKb (Guinea pig ileum)” value in test [2] was determined as 6.6.

Take `N=C(NCCCCN1CCCC1)NCc1ccc(C2CCCCC2)cc1` [Example 56, N-(4-Cyclohexylbenzyl)-N′-(4-pyrrolidin-1-yl-butyl)-guanidine bis-hydrochloride]: in test [1], the Ki was 20 nM. Further, the Kb in test [2] is 63.1 nM.

As for `CN1CCCC1CCCCNS(=O)(=O)Cc1ccc(Cl)cc1` (stereo not drawn) [Example 104, N-(4-(1-Methyl-pyrrolidin-2S-yl)-butyl)-(4-chlorophenyl)-methanesulfonamide], the Ki in test [1] was 398 nM. For the same compound, the Kb in test [2] is 398 nM.

Regarding `N=C(NCCCCCN1CCCC1)NCc1ccc2ccccc2c1` [Example 53, N-(Naphthalen-2-yl-methyl)-N′-(5-pyrrolidin-1-yl-pentyl)guanidine bis-hydrochloride], in test [1], the Ki is 7.94 nM. Also, the Kb in test [2] was 79.4 nM.
